Results published in patent US20240325274A1, “SUPRAMOLECULAR AMINO ACID OR SALT THEREOF, AND PREPARATION METHOD THEREFOR AND APPLICATION THEREOF” (SUZHOU OULIT BIOPHARM CO., LTD., priority 2021, published 2024).

Tests used:
[1] = pH, appearance and smell of neutralized aqueous solutions; format: physicochemical; settings: 4% in water with 0.54% sodium hydroxide (Table 6)
Experimental: (§1) Three sets of color cosmetics (lipstick+eyeliner) were applied to the arms of 5 subjects with similar areas and thicknesses. The cosmetics were washed with the aqueous solutions in Table 6 (1 g of each) and then rinsed with tap water (the detergency was graded by the 5 subjects comprehensively).
The preparation procedures are as follows: Two 500-g beakers were weighed on an electronic balance, and the weights of the beakers were recorded; a proper amount of deionized water was weighed and added to the beakers according to the formula, and the beakers were heated to 75-80° C. in a water bath. The temperature of the water in the beaker was measured by a thermometer. […] At the start of the stirring, a proper amount of arginine was added to beaker (1) and a proper amount of 10% aqueous sodium hydroxide solution was added to beaker (2). The mixtures were stirred for 1 min. The temperature of the beakers (1) and (2) was reduced to 25° C. by running tap water. The evaporated water in the two beakers in the preparation process was compensated by cooled deionized water to 100% on an electronic balance. The pH of the products in the beaker (1) and (2) was measured, the appearance was observed, and the smell was confirmed.

[2] = Detergency evaluation: color cosmetics on arms of 5 subjects; parameters: key: 5 denotes the best; 3 denotes moderate; 1 denotes the worst; settings: 1 g of 4% aqueous solution with 0.54% sodium hydroxide; graded by 5 subjects
Description: as §1

[3] = Experimental: Two 100-g aliquots of bok choy pre-sprayed with pesticides methamidophos and acephate were taken. One was directly soaked in 1 L of clean water and detected for the pesticide residues, denoted as “before washing”. […] The procedures are as follows:
A 10% aqueous sodium hydroxide solution was added to neutralize the mixture to pH 6-7. The volume of the aqueous solution was brought to 100 mL. The second 100-g aliquot of bok choy pre-sprayed with pesticides methamidophos and acephate was shredded, soaked in 5 mL of the stock solution for 2 min, washed with 500 mL of clean water, and detected for the pesticide residues.

[4] = Qualitative household application test; settings: 12% aqueous solution of sodium salt
Description: For the surface of the electric rice cookers, especially the sticky bottoms, the greasy stains on the surface were wiped several times by using rags or paper towels soaked in the solutions and then wiped by using a clean cloth.

[5] = cloths soaked in 5 mL stock solution for 2 min, washed with water, aired
Experimental: A 10% aqueous sodium hydroxide solution was added to neutralize the mixture to pH 6-7. The volume of the aqueous solution was brought to 100 mL. Cotton cloths of 10 square centimeters with peculiar smell (smell, engine oil smell, odor, etc.) were soaked in 5 mL of stock solution for 2 min, taken out, washed with water, and dried by airing.

C. albicans (ATCC 10231) = settings: 10 g in 100 mL neutralized with NaOH to pH 6-7
Experimental: (§2) A 10% aqueous sodium hydroxide solution was added to neutralize the mixture to pH 6-7. The volume of the aqueous solution was brought to 100 mL. Fruits pre-inoculated with common microorganisms such as Staphylococcus aureus, Escherichia coli, Pseudomonas aeruginosa, Candida albicans, and the like were soaked in 5 mL of the stock solution (the solution neutralized by sodium hydroxide) for a certain period of time, and washed with clean water. The microorganism residues on the fruits were determined.

S. aureus (ATCC 6538) = settings: 10 g in 100 mL neutralized with NaOH to pH 6-7
Experimental: as §2

E. coli (8099) = tested on: E. coli (8099)
Experimental: as §2

Compound | Appearance [1] | pH value [1] | Detergency [2] | Acephate, Percentage removal, % ([3]; 2 min of treatment) [%] | Methamidophos, Percentage removal, % ([3]; 2 min of treatment) [%] | Methamidophos residue, After cleaning ([3]; bok choy soaked in 5 mL stock solution for 2 min, washed with 500 mL clean water, before washing 16.42 mg/kg) [mg/kg] | Acephate residue, After cleaning ([3]; bok choy soaked in 5 mL stock solution for 2 min, washed with 500 mL clean water, before washing 37.57 mg/kg) [mg/kg] | Detergency on surfaces of cooking benches and kitchen hoods [4] | Deodorization effect on cotton cloths [5] | Inhibition of C. albicans (ATCC 10231), % (after 5 minutes) (C. albicans (ATCC 10231)) [%] | Inhibition of S. aureus (ATCC 6538), % (after 2 minutes) (S. aureus (ATCC 6538); after 2 minutes) [%] | Inhibition of S. aureus (ATCC 6538), % (after 5 minutes) (S. aureus (ATCC 6538); after 5 minutes) [%] | Inhibition of E. coli (8099), % (after 2 minutes) (E. coli (8099); after 2 minutes, 10 g in 100 mL neutralized with NaOH to pH 6-7, fruits soaked in 5 mL stock solution) [%] | Inhibition of E. coli (8099), % (after 5 minutes) (E. coli (8099); after 5 minutes, 10 g in 100 mL neutralized with NaOH to pH 6-7) [%]
CCCCCCCCCCCC(=O)N[C@@H](C)C(=O)O [Comparative Example 1, N-lauroyl-L-alanine] | Transparent | 8.07 | 3 |  |  |  |  |  |  |  |  |  |  | 
CCCCCCCCCCCC(=O)N[C@@H](C)C(=O)O [Comparative Example 2, N-lauroyl-L-alanine] | Transparent | 6.56 | 1 |  |  |  |  |  |  |  |  |  |  | 
N-lauroyl-L-alanine supramolecule [Example 1] |  |  | 5 | 86.37 | 76.19 | 3.91 | 5.12 | excellent detergency | the smells on the cotton cloths were completely eliminated | 100 | 100 | 100 | 98.5 | 100
